Experimental data: patent US8168821B2, “Cyclopropylacetic acid derivatives and use thereof” (Bayer Pharma Aktiengesellschaft, priority 2005, dated 2012)
Values belong to the molecule of their own block, whether it stands above or below them.

Assays:
[1] = biological target: T1, Heme-free sGC (recombinant soluble guanylate cyclase) (Rattus norvegicus, UniProt P20595); experiment: Stimulation of recombinant soluble guanylate cyclase (sGC) in vitro, heme-free enzyme; assay type: biochemical; details: 10 μM Example 9; heme-free enzyme obtained with 0.5% Tween 20
T1 construct: made in house
T1 sequence (P20595 1-619): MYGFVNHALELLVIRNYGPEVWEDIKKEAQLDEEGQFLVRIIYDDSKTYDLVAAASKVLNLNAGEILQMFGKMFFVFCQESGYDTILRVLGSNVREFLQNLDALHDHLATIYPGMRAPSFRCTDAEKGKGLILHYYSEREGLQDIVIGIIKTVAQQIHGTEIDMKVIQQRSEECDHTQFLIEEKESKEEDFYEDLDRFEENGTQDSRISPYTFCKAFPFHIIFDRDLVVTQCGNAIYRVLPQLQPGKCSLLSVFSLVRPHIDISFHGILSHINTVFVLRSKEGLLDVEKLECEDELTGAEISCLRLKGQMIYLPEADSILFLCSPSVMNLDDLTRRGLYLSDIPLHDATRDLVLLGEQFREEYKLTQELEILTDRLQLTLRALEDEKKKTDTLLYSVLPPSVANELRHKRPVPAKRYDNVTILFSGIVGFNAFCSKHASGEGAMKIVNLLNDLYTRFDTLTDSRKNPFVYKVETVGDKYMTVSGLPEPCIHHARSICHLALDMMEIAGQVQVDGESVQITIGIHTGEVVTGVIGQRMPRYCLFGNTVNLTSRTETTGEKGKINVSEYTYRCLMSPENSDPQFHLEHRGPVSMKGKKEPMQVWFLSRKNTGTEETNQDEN
T1 sequence (P19686 1-690 partner): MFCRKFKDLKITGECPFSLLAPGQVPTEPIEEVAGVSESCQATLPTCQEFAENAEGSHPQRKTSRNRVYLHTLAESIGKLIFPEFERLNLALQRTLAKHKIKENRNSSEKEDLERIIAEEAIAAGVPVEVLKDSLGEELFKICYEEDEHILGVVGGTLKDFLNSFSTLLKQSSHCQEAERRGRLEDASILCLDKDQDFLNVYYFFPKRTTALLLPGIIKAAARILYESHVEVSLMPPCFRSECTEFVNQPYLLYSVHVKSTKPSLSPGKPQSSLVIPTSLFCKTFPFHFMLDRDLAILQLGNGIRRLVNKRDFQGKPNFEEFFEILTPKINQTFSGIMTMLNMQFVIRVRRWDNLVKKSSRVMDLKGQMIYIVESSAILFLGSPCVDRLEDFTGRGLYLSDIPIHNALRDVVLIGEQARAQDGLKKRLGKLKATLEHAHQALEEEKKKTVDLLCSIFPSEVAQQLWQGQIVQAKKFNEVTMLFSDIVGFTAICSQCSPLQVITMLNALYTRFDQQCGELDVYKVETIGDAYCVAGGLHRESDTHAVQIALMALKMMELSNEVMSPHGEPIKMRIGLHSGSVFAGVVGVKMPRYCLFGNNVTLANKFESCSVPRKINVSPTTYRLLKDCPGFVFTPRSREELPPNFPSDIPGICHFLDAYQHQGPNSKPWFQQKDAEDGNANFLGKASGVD
Experimental: Investigations on the stimulation of recombinant soluble guanylate cyclase (sGC) by the compounds according to the invention with and without sodium nitroprusside, and with and without the heme-dependent sGC inhibitor 1H-1,2,4-oxadiazole-(4,3a)-quinoxalin-1-one (ODQ) are carried out by the method described in detail in the following reference: M. Hoenicka, E. M. Becker, H. Apeler, T. Sirichoke, H. Schroeder, R. Gerzer and J.-P. Stasch, “Purified soluble guanylyl cyclase expressed in a baculovirus/Sf9 system: Stimulation by YC-1, nitric oxide, and […]”, J. Mol. Med. 77 (1999), 14-23. The heme-free guanylate cyclase is obtained by adding Tween 20 to the sample buffer (0.5% in the final concentration).
(§1) The activation of sGC by a test substance is reported as n-fold stimulation of the basal activity.

[2] = biological target: T2, Heme-containing sGC (recombinant soluble guanylate cyclase) (Rattus norvegicus, UniProt P20595); experiment: Stimulation of recombinant soluble guanylate cyclase (sGC) in vitro, heme-containing enzyme; assay type: biochemical
T2 construct: made in house
T2 sequence (P20595 1-619): T1 sequence (P20595 1-619)
T2 sequence (P19686 1-690 partner): T1 sequence (P19686 1-690 partner)
Excerpt: Hoenicka, E. M. Becker, H. Apeler, T. Sirichoke, H. Schroeder, R. Gerzer and J.-P. Stasch, “Purified soluble guanylyl cyclase expressed in a baculovirus/Sf9 system: Stimulation by YC-1, nitric oxide, and carbon oxide”, J. Mol. Med. 77 (1999), 14-23. The heme-free guanylate cyclase is obtained by adding Tween 20 to the sample buffer (0.5% in the final concentration).
as §1

saphenous artery rings = experiment: Vasorelaxant effect in vitro (phenylephrine-contracted artery rings); design: species or system Rabbits; details: rabbit saphenous artery rings, contraction induced by phenylephrine, concentration reducing contraction by 50%
Experimental: Rabbits are anesthetized and sacrificed by intravenous injection of thiopental sodium (about 50 mg/kg) and exsanguinated. The saphenous artery is removed and divided into rings 3 mm wide. The rings are mounted singly on in each case a pair of triangular hooks open at the end and made of 0.3 mm-thick special wire (Remanium®). Each ring is placed under an initial tension in 5 ml organ baths with Krebs-Henseleit solution which is at 37° C., is gassed with carbogen and has the following composition: NaCl 119 mM; KCl 4.8 mM; CaCl2×2H2O 1 mM; MgSO4×7H2O 1.4 mM; KH2PO4 1.2 mM; NaHCO3 25 mM; glucose 10 mM; bovine serum albumin 0.001%. The force of contraction is detected with Statham UC2 cells, amplified and digitized via A/D converters (DAS-1802 HC, Keithley Instruments, Munich) and recorded in parallel on chart recorders. Contractions are induced by addition of phenylephrine.
After several (generally 4) control cycles, the substance to be investigated is added in each further run in increasing dosage, and the height of the contraction achieved under the influence of the test substance is compared with the height of the contraction reached in the last preceding run. The concentration necessary to reduce the contraction reached in the preceding control by 50% is calculated from this (IC50). The standard application volume is 5 μl. The proportion of DMSO in the bath solution corresponds to 0.1%.

SMILES: O=C(O)CC1(CCC(/C=C/c2ccccc2OCCCCCc2ccccc2)Cc2ccc(C(=O)O)cc2)CC1 (racemic) [Example 9, 4-((3E)-2-{2-[1-(Carboxymethyl)cyclopropyl]ethyl}-4-{2-[(5-phenylpentyl)oxy]phenyl}but-3-en-1-yl)benzoic acid]
Stimulation (n-fold) of heme-free sGC, Basal [1]: 21.0 n-fold | Stimulation (n-fold) of heme-containing sGC, Basal ([2]; 10 μM Example 9, no addition): 8.0 n-fold | Stimulation (n-fold) of heme-containing sGC, +0.1 μM DEA/NO ([2]; 10 μM Example 9 plus 0.1 μM DEA/NO): 109.2 n-fold | Stimulation (n-fold) of heme-containing sGC, +10 μM ODQ ([2]; 10 μM Example 9 plus 10 μM ODQ): 41.0 n-fold | Synergism of combination with NO donor DEA/NO on heme-containing sGC ([2]; combination of Example 9 and DEA/NO): no synergistic effect | Effect of heme-dependent sGC inhibitor ODQ on sGC activation ([2]; with ODQ): not blocked | IC50 (saphenous artery rings): 0.406 µM

SMILES: O=C(O)CC1(CCC(/C=C/c2ccccc2OCCCCCc2ccccc2)Cc2ccc(C(=O)O)cc2)CC1 (racemic) [Example 8, 4-((3E)-2-{2-[1-(Carboxymethyl)cyclopropyl]ethyl}-4-{2-[(5-phenylpentyl)oxy]phenyl}but-3-en-1-yl)benzoic acid]
IC50 (saphenous artery rings): 1.02 µM

SMILES: CCN(CC)[N+]([O-])=NO [DEA/NO, 2-(N,N-diethylamino)diazenolate 2-oxide, reference compound]
Stimulation (n-fold) of heme-containing sGC by DEA/NO alone ([2]; 0.1 μM DEA/NO, 0.0 μM Example 9): 101.0 n-fold

SMILES: O=c1onc2cnc3ccccc3n12 [ODQ, 1H-1,2,4-oxadiazole-(4,3a)-quinoxalin-1-one, reference compound]
Stimulation (n-fold) of heme-containing sGC with ODQ alone ([2]; 10 μM ODQ, 0.0 μM Example 9): 3.7 n-fold

The remaining lines, values ahead:

IC50 (saphenous artery rings): 0.033 µM
SMILES: CC(C)(C)c1ccc(COc2ccccc2/C=C/C(CCC2(CC(=O)O)CC2)Cc2ccc(C(=O)O)cc2)cc1 (racemic) [Example 6, 4-((3E)-4-{2-[(4-tert-Butylbenzyl)oxy]phenyl}-2-{2-[1-(carboxymethyl)cyclopropyl]ethyl}but-3-en-1-yl)benzoic acid]

IC50 (saphenous artery rings): 0.0058 µM
SMILES: CC(C)(C)c1ccc(COc2ccccc2/C=C/C(CCc2ccc(C(=O)O)cc2)CCC2(CC(=O)O)CC2)cc1 (racemic) [Example 3, 4-((4E)-5-{2-[(4-tert-Butylbenzyl)oxy]phenyl}-3-{2-[1-(carboxymethyl)cyclopropyl]ethyl}pent-4-en-1-yl)benzoic acid]

IC50 (saphenous artery rings; Oryctolagus cuniculus): 0.0029 µM
SMILES: CC(C)(C)c1ccc(COc2ccccc2/C=C/C(CCc2ccc(C(=O)O)cc2)CCC2(CC(=O)O)CC2)cc1 (racemic) [Example 2, 4-((4E)-5-{2-[(4-tert-Butylbenzyl)oxy]phenyl}-3-{2-[1-(carboxymethyl)cyclopropyl]ethyl}pent-4-en-1-yl)benzoic acid]

IC50 (saphenous artery rings; Oryctolagus cuniculus): 0.058 µM
SMILES: CC(C)(C)c1ccc(COc2ccccc2/C=C/C(CCC2(CC(=O)O)CC2)Cc2ccc(C(=O)O)cc2)cc1 (racemic) [Example 5]
